Test results published in US8497074B2, “Granin proteins as markers of heart disease” (Universitetet I Oslo, priority 2008, dated 2013).
Entries after “also recorded” stand apart in the source; their conditions may differ.

Columns and labels:
Type in all cases: cell-based
[1] = tested on: neonatal rat cardiomyocytes; assay: CgB gene expression in isolated neonatal cardiomyocytes after stimulation with signaling agents (qRT-PCR)
Protocol: (§1) Neonatal rat cardiomyocytes were isolated from neonatal (1-3 days) Wistar rats (Taconic, Skensved, Denmark) as previously reported. After 24 hours starvation, the cardiomyocytes were stimulated for 24 hours with the following agents; Forskolin [1 and 10 μM], norepinephrine [100 μM], endothelin [77 ng/ml] and angiotensin II [1 μM] (all Sigma, Europe), tumor necrosis factor-α (TNF-α) [10 ng/ml] (BioSource International Camarillo, Calif., USA), interleukin-1β (IL-1β) [10 ng/ml], monocyte chemoattractant protein-1 (MCP-1) [200 ng/ml], transforming growth factor-β (TGF-β) [10 ng/ml] (all R&D Systems, Minneapolis, Minn., USA), and a C-terminal CgB peptide—CgB312-323 [1, 10 and 100 ng/ml] (053-20, Phoenix Pharmaceuticals, Burlingame, Calif., USA).
(§2) Total RNA was isolated from neonatal rat cardiomyocytes according to the protocol (RNeasy mini kit, Qiagen, Valencia, Calif., USA). Along with lysis buffer, the Mixer Mill 300 System (RETSCH, Haan, Germany) and stainless steel beads (Qiagen, Hilden, Germany) were used for mechanical disruption of the cells. RNA concentrations and quality were assessed as earlier described with the NanoDrop system and an Agilent BioAnalyzer 2100. Reverse transcription reactions were performed with iScript Select cDNA Synthesis Kit (Bio-Rad Laboratories, Inc., Hercules, Calif., USA). Gene expression was determined by qRT-PCR with pre-made TaqMan Gene Expression Assays from Applied Biosystems: CgB (Rn01514853—1), BNP (Rn00580641—1), Rp14 (Rn00821091—1). Gene expression in stimulated cells is presented as change vs. gene expression in PBS stimulated cells (normalized vs. control). All samples were run in triplicate and Rp14 gene expression was used as an internal control.
as §1, with “factor-α(TNF-α)” for “factor-α (TNF-α)”, “peptide—CgB312-323 and secretoneurin” for “peptide—CgB312-323”, “(053-20, 047-95,” for “(053-20,”
as §2, with “Biosystems: SgII (Rn01400686—1),” for “Biosystems:”

[2] = tested on: neonatal rat cardiomyocytes; assay: SgII gene expression in isolated neonatal cardiomyocytes after stimulation with signaling agents (qRT-PCR); settings: stimulated for 24 hours, vs. PBS stimulated cells
Protocol: as §1, with “factor-α(TNF-α)” for “factor-α (TNF-α)”, “peptide—CgB312-323 and secretoneurin” for “peptide—CgB312-323”, “(053-20, 047-95,” for “(053-20,”
as §2, with “Biosystems: SgII (Rn01400686—1),” for “Biosystems:”

[3] = tested on: neonatal rat cardiomyocytes; assay: BNP gene expression in isolated neonatal cardiomyocytes after stimulation with signaling agents (qRT-PCR); settings: stimulated for 24 hours, vs. PBS stimulated cells
Protocol: as §1, §2
as §1, with “factor-α(TNF-α)” for “factor-α (TNF-α)”, “peptide—CgB312-323 and secretoneurin” for “peptide—CgB312-323”, “(053-20, 047-95,” for “(053-20,”
as §2, with “Biosystems: SgII (Rn01400686—1),” for “Biosystems:”

[4] = neonatal rat cardiomyocytes, stimulated for 24 hours, vs. PBS stimulated cells

Molecule | SgII gene expression increase [2] [%] | change in BNP gene expression (in words) [3] | change in CgB gene expression (in words) [1, 4] | change in SgII gene expression (in words) [2] | also measured
C=C[C@@]1(C)CC(=O)[C@]2(O)[C@@]3(C)[C@@H](O)CCC(C)(C)[C@@H]3[C@H](O)[C@H](OC(C)=O)[C@@]2(C)O1 [Forskolin] | 40 | – | – | – | CgB production (gene expression) increase [1, 4]: 60%
CC[C@H](C)[C@H](NC(=O)[C@H](CC(=O)O)NC(=O)[C@H](CC(C)C)NC(=O)[C@H](Cc1c[nH]cn1)NC(=O)[C@@H]1CSSC[C@H](N)C(=O)N[C@@H](CO)C(=O)N[C@H]2CSSC[C@H](NC(=O)[C@H](CCC(=O)O)NC(=O)[C@H](CCCCN)NC(=O)[C@H](CC(=O)O)NC(=O)[C@H](CCSC)NC(=O)[C@H](CC(C)C)NC(=O)[C@H](CO)NC(=O)[C@H](CO)NC2=O)C(=O)N[C@@H](C(C)C)C(=O)N[C@@H](Cc2ccc(O)cc2)C(=O)N[C@@H](Cc2ccccc2)C(=O)N1)C(=O)N[C@H](C(=O)N[C@@H](Cc1c[nH]c2ccccc12)C(=O)O)[C@@H](C)CC [endothelin] | – | increased | no significant change | no significant change | –
NC[C@H](O)c1ccc(O)c(O)c1 [norepinephrine] | 55 | – | – | – | change in BNP gene expression (in words) ([3]; listed as NA): increased; also recorded: most powerful stimulus; also recorded: potent agents for upregulating; CgB gene expression, times upregulated ([1]; isolated cardiomyocytes, change vs. PBS stimulated cells (FIG. 8A)): 3 ×; CgB gene expression, fold increase ([1]; neonatal rat cardiomyocytes, stimulated for 24 hours, change vs. PBS stimulated cells): 3 fold; change in CgB gene expression (in words) ([1]; neonatal rat cardiomyocytes, stimulated for 24 hours, vs. PBS stimulated cells, listed as NA): upregulated; also recorded: potent agents for upregulating; change in SgII gene expression (in words) ([2]; listed as NA): potent agents for upregulating; also recorded: increased
angiotensin II (DRVYIHPF; Angiotensin-2; UniProt P01019 25-32, looked up) | – | increased | significantly upregulated | no significant change | change in CgB gene expression (in words) ([1]; neonatal rat cardiomyocytes, stimulated for 24 hours, vs. PBS stimulated cells, listed as AT II): upregulated; change in CgB gene expression (in words) ([1]; neonatal rat cardiomyocytes, stimulated for 24 hours, vs. PBS stimulated cells, listed as Angiotensin II): significantly upregulated
interleukin-1β | – | – | no significant change | no significant change | –
monocyte chemoattractant protein-1 | – | – | significantly upregulated | no significant change | change in CgB gene expression (in words) ([1]; neonatal rat cardiomyocytes, stimulated for 24 hours, vs. PBS stimulated cells, listed as MCP-1): upregulated
secretoneurin: 33 amino acid peptide fragment of SgII, 047-95, Phoenix Pharmaceuticals (TNEIVEEQYTPQSLATLESVFQELGKLTGPNNQ; Secretoneurin; UniProt P13521 182-214, looked up) | – | did not affect | did not affect | did not affect | change in SgII gene expression (in words) ([2]; listed as SgII): no significant change
transforming growth factor-β | 85 | – | significantly upregulated | – | change in BNP gene expression (in words) ([3]; listed as TGF-β): increased; also recorded: potent agents for upregulating; change in CgB gene expression (in words) ([1]; neonatal rat cardiomyocytes, stimulated for 24 hours, vs. PBS stimulated cells, listed as TGF-β): upregulated; also recorded: potent agents for upregulating; change in SgII gene expression (in words) ([2]; listed as TGF-β): potent agents for upregulating; also recorded: increased
tumor necrosis factor-α | – | – | no significant change | no significant change | –
